Measurements published in the NIST ThermoML archive (doi:10.1021/je0601255).
± gives the expanded uncertainty stated by the source.

Key:
[1] = xn = mol fraction of the nth substance listed; details: 101 kPa, Liquid, x1 = 1; for viscosity: Capillary tube (Ostwald / Ubbelohde) method; for mass density: Pycnometric method
[2] = 101 kPa, Liquid; for viscosity: Capillary tube (Ostwald / Ubbelohde) method; for mass density: Pycnometric method

Compound | viscosity ([1]; 288.15 K) [mPa·s] | mass density ([1]; 288.15 K) [kg/m3] | viscosity ([1]; 298.15 K) [mPa·s] | mass density ([1]; 298.15 K) [kg/m3] | viscosity ([1]; 308.15 K) [mPa·s] | mass density ([1]; 308.15 K) [kg/m3] | viscosity ([1]; 318.15 K) [mPa·s] | mass density ([1]; 318.15 K) [kg/m3] | viscosity ([2]; 288.15 K) [mPa·s] | mass density ([2]; 288.15 K) [kg/m3] | viscosity ([2]; 298.15 K) [mPa·s] | mass density ([2]; 298.15 K) [kg/m3] | viscosity ([2]; 308.15 K) [mPa·s] | mass density ([2]; 308.15 K) [kg/m3] | viscosity ([2]; 318.15 K) [mPa·s] | mass density ([2]; 318.15 K) [kg/m3]
CCCCO [butan-1-ol] + C=C(C)C(=O)OCc1ccccc1 | 3.286 ± 0.07 | 812.3 ± 1.7 | 2.566 ± 0.055 | 805.6 ± 1.7 | 1.998 ± 0.043 | 798 ± 1.7 | 1.55 ± 0.033 | 790.5 ± 1.6 |  |  |  |  |  |  |  | 
C=C(C)C(=O)OCCO [2-hydroxyethyl 2-methyl-2-propenoate] |  |  |  |  |  |  |  |  | 8.234 ± 0.19 | 1074.7 ± 2.4 | 5.784 ± 0.13 | 1067.1 ± 2.4 | 4.194 ± 0.096 | 1057.7 ± 2.4 | 3.181 ± 0.073 | 1048.6 ± 2.4
C=C(C)C(=O)O [2-methyl-2-propenoic acid] |  |  |  |  |  |  |  |  | 1.447 ± 0.031 | 1018.3 ± 2.1 | 1.267 ± 0.027 | 1009.5 ± 2.1 | 1.078 ± 0.023 | 999.4 ± 2.1 | 0.945 ± 0.02 | 989.2 ± 2.1
CCCCO [butan-1-ol] |  |  |  |  |  |  |  |  | 3.286 ± 0.07 | 812.3 ± 1.7 | 2.566 ± 0.055 | 805.6 ± 1.7 | 1.998 ± 0.043 | 798 ± 1.7 | 1.55 ± 0.033 | 790.5 ± 1.6
CCCCO [butan-1-ol] + C=C(C)C(=O)OCCO | 3.286 ± 0.07 | 812.3 ± 1.7 | 2.566 ± 0.055 | 805.6 ± 1.7 | 1.998 ± 0.043 | 798 ± 1.7 | 1.55 ± 0.033 | 790.5 ± 1.6 |  |  |  |  |  |  |  | 
CCCCO [butan-1-ol] + C=C(C)C(=O)O | 3.286 ± 0.07 | 812.3 ± 1.7 | 2.566 ± 0.055 | 805.6 ± 1.7 | 1.998 ± 0.043 | 798 ± 1.7 | 1.55 ± 0.033 | 790.5 ± 1.6 |  |  |  |  |  |  |  | 
C=C(C)C(=O)OCc1ccccc1 [benzyl methacrylate] |  |  |  |  |  |  |  |  | 2.871 ± 0.066 | 1041.2 ± 2.4 | 2.302 ± 0.053 | 1034.7 ± 2.3 | 1.885 ± 0.043 | 1025.8 ± 2.3 | 1.58 ± 0.036 | 1017 ± 2.3
